From US20200319163A1, “METHODS AND COMPOSITIONS OVERCOMING CANCER CELL IMMUNE RESISTANCE” (Georgetown University, priority 2019, published 2020)

Tested on: ADCCR1 cells
Assay: ADCC assay (specific lysis by NK92-CD16V effector cells) on ADCC-resistant cells
Assay type: cell-based, human
Details: ADCCR1 pretreated with inhibitor 0.01 to 10 μmol/L for 2 hours; ADCC assay at 4 hours; FIG. 4B, 4C
Source text: Inhibitors of histone acetyltransferase C646 (cat. no. S7152), DNA methyltransferase azacytidine (cat. no. S1782), histone demethylase GSK J4 HCL (cat. no. S7070), and HDAC panobinostat (cat. no. S1030) were purchased from Selleck Chemicals. Inhibitors were solubilized in DMSO at […]. Vehicle treatment (DMSO) was used at the highest equivalent v/v used in inhibitor treatments.
ADCC assays were preformed using A431/ADCCS1/ADCCR1 as target cells and NK92-CD16V cells as the effector cells. Target cells are plated at 10,000 cells/well overnight (A431 cells double overnight).

CC1=NN(c2ccc(C(=O)O)cc2)C(=O)/C1=C\c1ccc(-c2cc(C)c(C)cc2[N+](=O)[O-])o1 [C646]
ADCC resistance / resensitization to ADCC (specific lysis): partially reversed
